In the supplement of paper PMC10307832:

Legend:
Test in all cases: relative viability (nuclei count vs DMSO), 5 days (fraction); higher = more cells survive
[1] = test system: NCI-H2170
In short: (§1)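 Five library-drug doses in √10 steps were combined with a fixed anchor-drug dose, or a single drug was given alone, by pin tool to lung cancer cell lines in 1536-well plates the day after seeding. Nuclei were stained and counted after 5 days. Relative viability is the nuclei count in treated wells over that in vehicle wells, taken as the median of duplicate plates.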

[2] = test system: NCI-H1703
In short: as §1

[3] = test system: NCI-H23
In short: as §1

[4] = test system: NCI-H1975
In short: as §1

[5] = test system: HOP-62
In short: as §1

[6] = test system: IA-LM
In short: as §1

[7] = test system: NCI-H1299
In short: as §1

[8] = test system: Calu-6
In short: as §1

[9] = test system: EBC-1
In short: as §1

[10] = test system: A549
In short: as §1

Compound | relative viability ([1]; first compound 0.08 µM) | relative viability ([1]; first compound 0.253 µM) | relative viability ([1]; first compound 0.8 µM) | relative viability ([1]; first compound 2.53 µM) | relative viability ([2]; first compound 0.08 µM) | relative viability ([2]; first compound 0.253 µM) | relative viability ([2]; first compound 0.8 µM) | relative viability ([3]; first compound 0.08 µM) | relative viability ([3]; first compound 0.8 µM) | relative viability ([3]; first compound 2.53 µM) | relative viability ([4]; first compound 0.08 µM) | relative viability ([4]; first compound 0.253 µM) | relative viability ([4]; first compound 0.8 µM) | relative viability ([4]; first compound 2.53 µM) | relative viability ([5]; first compound 0.08 µM) | relative viability ([5]; first compound 0.253 µM) | relative viability ([5]; first compound 0.8 µM) | relative viability ([5]; first compound 2.53 µM) | relative viability ([6]; first compound 0.08 µM) | relative viability ([6]; first compound 0.253 µM) | further results
C=C1C(=O)O[C@@H](CCCCCCCC)[C@@H]1C(=O)O [C-75] + NC(=O)Nc1cc(-c2cccc(F)c2)sc1C(=O)N[C@H]1CCCNC1 [AZD7762] (partner 0.2 µM) | 0.945 | 1.1 | 0.858 | 0.737 | 0.125 | 0.126 | 0.115 | 0.255 | 0.263 | 0.197 | 0.771 | 0.556 | 0.623 | 0.667 | 0.592 | 1.09 | 0.522 | 0.657 | – | – | relative viability ([1]; first compound 8 µM): 0.887; relative viability ([2]; first compound 8 µM): 0.149; relative viability ([3]; first compound 0.253 µM): 0.43; relative viability ([3]; first compound 8 µM): 0.376; relative viability ([4]; first compound 8 µM): 0.78; relative viability ([5]; first compound 8 µM): 0.91
Oc1nc(-c2ccc(C(F)(F)F)cc2)nc2c1CSCC2 [XAV939] + O=C(CCCCCCC(=O)Nc1ccccc1)NO [Vorinostat] (partner 1 µM) | 0.86 | 0.614 | 0.739 | 0.543 | – | – | – | 0.684 | 0.66 | 0.415 | 0.784 | 0.588 | 0.673 | 0.667 | 0.888 | 0.525 | 0.501 | 0.311 | 1.08 | 0.664 | relative viability ([6]; first compound 0.8 µM): 0.951; relative viability ([6]; first compound 2.53 µM): 0.778
Oc1nc(-c2ccc(C(F)(F)F)cc2)nc2c1CSCC2 [XAV939] + NC(=O)Nc1cc(-c2cccc(F)c2)sc1C(=O)N[C@H]1CCCNC1 [AZD7762] (partner 0.2 µM) | 0.867 | 0.692 | 0.823 | 0.532 | 0.156 | 0.137 | 0.138 | 0.393 | 0.195 | 0.238 | 0.684 | 0.534 | 0.504 | 0.516 | 0.827 | 0.503 | 0.613 | 0.323 | – | – | relative viability ([2]; first compound 2.53 µM): 0.111
Oc1nc(-c2ccc(C(F)(F)F)cc2)nc2c1CSCC2 [XAV939] + O=C(c1cc(Cc2n[nH]c(=O)c3ccccc23)ccc1F)N1CCN(C(=O)C2CC2)CC1 [Olaparib] (partner 8 µM) | 0.56 | 0.451 | 0.5 | 0.402 | 0.415 | 0.236 | 0.408 | 0.323 | 0.278 | 0.264 | 0.712 | 0.601 | 0.622 | 0.505 | 0.369 | 0.351 | 0.502 | 0.371 | 0.824 | 0.633 | relative viability ([7]; first compound 0.08 µM): 0.937; relative viability ([7]; first compound 0.253 µM): 0.883; relative viability ([7]; first compound 0.8 µM): 0.931; relative viability ([7]; first compound 2.53 µM): 0.914; relative viability ([8]; first compound 0.08 µM): 0.556; relative viability ([8]; first compound 0.253 µM): 0.547; relative viability ([8]; first compound 0.8 µM): 0.544; relative viability ([8]; first compound 2.53 µM): 0.504; relative viability ([9]; first compound 0.08 µM): 0.722; relative viability ([9]; first compound 0.253 µM): 0.623; relative viability ([9]; first compound 0.8 µM): 0.619; relative viability ([9]; first compound 2.53 µM): 0.607; relative viability ([6]; first compound 0.8 µM): 0.728; relative viability ([6]; first compound 2.53 µM): 0.699; relative viability ([2]; first compound 2.53 µM): 0.485; relative viability ([10]; first compound 0.08 µM): 0.357; relative viability ([10]; first compound 0.253 µM): 0.265; relative viability ([10]; first compound 0.8 µM): 0.246; relative viability ([10]; first compound 2.53 µM): 0.19
Oc1nc(-c2ccc(C(F)(F)F)cc2)nc2c1CSCC2 [XAV939] + Nc1ncn([C@H]2C[C@H](O)[C@@H](CO)O2)c(=O)n1 [Decitabine] (partner 2 µM) | 0.472 | 0.484 | 0.455 | 0.385 | – | – | – | 0.312 | 0.32 | 0.273 | 0.382 | 0.357 | 0.379 | 0.354 | 0.226 | 0.193 | 0.223 | 0.157 | – | – | relative viability ([10]; first compound 0.08 µM): 0.291; relative viability ([10]; first compound 0.8 µM): 0.315; relative viability ([10]; first compound 2.53 µM): 0.228
